Target: T1, human liver GK (Homo sapiens, UniProt P35557)
T1 construct: GST (glutathione S-transferase) (N); made in house; host or cells: E. coli
T1 sequence (P35557 1-466 isoform P35557-2): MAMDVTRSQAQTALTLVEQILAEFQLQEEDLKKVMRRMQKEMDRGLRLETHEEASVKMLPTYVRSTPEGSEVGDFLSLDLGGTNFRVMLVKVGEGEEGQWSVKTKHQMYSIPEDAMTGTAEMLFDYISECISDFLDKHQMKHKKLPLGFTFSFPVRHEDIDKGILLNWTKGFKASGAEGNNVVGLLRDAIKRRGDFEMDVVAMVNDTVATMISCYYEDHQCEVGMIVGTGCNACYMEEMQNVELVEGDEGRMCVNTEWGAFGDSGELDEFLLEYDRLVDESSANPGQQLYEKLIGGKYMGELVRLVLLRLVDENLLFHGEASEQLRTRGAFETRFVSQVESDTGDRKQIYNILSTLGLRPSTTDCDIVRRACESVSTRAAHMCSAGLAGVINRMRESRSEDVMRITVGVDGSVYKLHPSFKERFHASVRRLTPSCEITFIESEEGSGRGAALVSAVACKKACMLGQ
Assay: GK activation test
Type: biochemical
Conditions: test compound concentration needed to activate 50% of maximum activation ability; 4 mM 14C-labeled glucose, 2 mM ATP, room temperature, 20 minutes
Outline: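 GST-tagged human liver GK from E. coli (0.24 μg/well) with 4 mM 14C-glucose, 2 mM ATP in Hepes-KOH pH 7.1, KCl, MgCl2, DTT, 1% DMSO, 20 min room temperature. Labeled glucose 6-phosphate captured on anion resin, eluted and counted. EC50 = concentration giving half of maximal activation.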

Row | EC50 [nM] | Compound
1 | 10 to 500 | CCc1ccc(/C(=C/[C@H]2CCC(=O)C2)c2ccc(S(=O)(=O)CCCN(CC)CC)c(Cl)c2)[nH]c1=O [Example 1-78, 6-{(E)-1-(3-Chloro-4-{[3-(diethylamino)propyl]sulfonyl}phenyl)-2-[(1S)-3-oxocyclopentyl]ethenyl}-3-ethylpyridin-2(1H)-one]
2 | 10 to 500 | CCN(CC)CCCOc1ccc(/C(=C\[C@H]2CCC(=O)C2)c2ccc(C3CC3)c(=O)[nH]2)cc1Cl [Example 1-79, 6-{(E)-1-{3-Chloro-4-[3-(diethylamino)propoxy]phenyl}-2-[(1S)-3-oxocyclopentyl]ethenyl}-3-cyclopropylpyridin-2(1H)-one]
3 | 500 to 3000 | O=C1CC[C@H](/C=C(\c2ccc(OCCCO)c(Cl)c2)c2ccc(C(F)(F)F)c(=O)[nH]2)C1 [Example 1-81, 6-{(E)-1-[3-Chloro-4-(3-hydroxypropoxy)phenyl]-2-[(1S)-3-oxocyclopentyl]ethenyl}-3-(trifluoromethyl)pyridin-2(1H)-one]
4 | 10 to 500 | O=C1CC[C@H](/C=C(\c2ccc(SCCCO)c(Cl)c2)c2ccc(C(F)(F)F)c(=O)[nH]2)C1 [Example 1-82, 6-{(E)-1-{3-Chloro-4-[(3-hydroxypropyl)sulfanyl]phenyl}-2-[(1S)-3-oxocyclopentyl]ethenyl}-3-(trifluoromethyl)pyridin-2(1H)-one]
5 | 500 to 3000 | CCN(CC)CCCOc1ccc(/C(=C\[C@H]2CCC(=O)C2)c2ccc(C(F)(F)F)c(=O)[nH]2)cc1Cl [Example 1-83, 6-{(E)-1-{3-Chloro-4-[3-(diethylamino)propoxy]phenyl}-2-[(1S)-3-oxocyclopentyl]ethenyl}-3-(trifluoromethyl)pyridin-2(1H)-one]
6 | 500 to 3000 | CCN(CC)CCCSc1ccc(/C(=C\[C@H]2CCC(=O)C2)c2ccc(C(F)(F)F)c(=O)[nH]2)cc1Cl [Example 1-84, 6-{(E)-1-(3-Chloro-4-{[3-(diethylamino)propyl]sulfanyl}phenyl)-2-[(1S)-3-oxocyclopentyl]ethenyl}-3-(trifluoromethyl)pyridin-2(1H)-one]
7 | 10 to 500 | CSc1ccc(/C(=C\[C@H]2CCC(O)C2)c2ccc(C3CC3)c(=O)[nH]2)cc1Cl (stereo partly drawn) [Example 1-85, 6-{(E)-1-[3-Chloro-4-(methylsulfanyl)phenyl]-2-[(1S)-3-hydroxycyclopentyl]ethenyl}-3-cyclopropylpyridin-2(1H)-one]
8 | 500 to 3000 | CCN(CC)CCCOc1ccc(/C(=C\[C@H]2CCC(O)C2)c2ccc(C(F)(F)F)c(=O)[nH]2)cc1Cl (stereo partly drawn) [Example 1-86, 6-{(E)-1-{3-Chloro-4-[3-(diethylamino)propoxy]phenyl}-2-[(1S)-3-hydroxycyclopentyl]ethenyl}-3-(trifluoromethyl)pyridin-2(1H)-one]
9 | 500 to 3000 | CCN(CC)CCCOc1ccc(/C(=C\[C@H]2CCC(O)C2)c2ccc(C3CC3)c(=O)[nH]2)cc1Cl (stereo partly drawn) [Example 1-87, 6-{(E)-1-{3-Chloro-4-[3-(diethylamino)propoxy]phenyl}-2-[(1S)-3-hydroxycyclopentyl]ethenyl}-3-cyclopropylpyridin-2(1H)-one]
10 | 500 to 3000 | COc1ccc(/C(=C\[C@H]2CC[C@@H](O)CC2)c2ccc(C3CC3)c(=O)[nH]2)cc1Cl [Example 1-88, 6-[(E)-1-(3-Chloro-4-methoxyphenyl)-2-(cis-4-hydroxycyclohexyl)ethenyl]-3-cyclopropylpyridin-2(1H)-one]
11 | 500 to 3000 | COc1ccc(/C(=C\[C@H]2CC[C@H](O)CC2)c2ccc(C3CC3)c(=O)[nH]2)cc1Cl [Example 1-89, 6-[(E)-1-(3-Chloro-4-methoxyphenyl)-2-(trans-4-hydroxycyclohexyl)ethenyl]-3-cyclopropylpyridin-2(1H)-one]
12 | 10 to 500 | O=c1[nH]c(/C(=C/[C@H]2CC[C@H](O)CC2)c2ccc(SC3CC3)cc2)ccc1C(F)(F)F [Example 1-90, 6-[(E)-1-[4-(Cyclopropylsulfanyl)phenyl]-2-(trans-4-hydroxycyclohexyl)ethenyl]-3-(trifluoromethyl)pyridin-2(1H)-one]
13 | 500 to 3000 | O=c1[nH]c(/C(=C/[C@H]2CC[C@H](O)CC2)c2ccc(S(=O)(=O)C3CC3)cc2)ccc1C(F)(F)F [Example 1-91, 6-[(E)-1-[4-(Cyclopropylsulfonyl)phenyl]-2-(trans-4-hydroxycyclohexyl)ethenyl]-3-(trifluoromethyl)pyridin-2(1H)-one]
14 | 3000 to 10000 | CSc1ccc(/C(=C\CCO)c2ccc(C3CC3)c(=O)[nH]2)cc1 [Example 1-92, 3-Cyclopropyl-6-{(1E)-4-hydroxy-1-[4-(methylsulfanyl)phenyl]but-1-en-1-yl}pyridin-2(1H)-one]
15 | 3000 to 10000 | CS(=O)(=O)c1ccc(/C(=C\CCO)c2ccc(C3CC3)c(=O)[nH]2)cc1 [Example 1-93, 3-Cyclopropyl-6-{(1E)-4-hydroxy-1-[4-(methylsulfonyl)phenyl]but-1-en-1-yl}pyridin-2(1H)-one]
16 | 3000 to 10000 | CSc1ccc(/C(=C\CCNC(C)=O)c2ccc(C3CC3)c(=O)[nH]2)cc1 [Example 1-94, N-{(3E)-4-(5-Cyclopropyl-6-oxo-1,6-dihydropyridin-2-yl)-4-[4-(methylsulfanyl)phenyl]but-3-en-1-yl}acetamide]
17 | 3000 to 10000 | CC(=O)NCC/C=C(\c1ccc(S(C)(=O)=O)cc1)c1ccc(C2CC2)c(=O)[nH]1 [Example 1-95, N-{(3E)-4-(5-Cyclopropyl-6-oxo-1,6-dihydropyridin-2-yl)-4-[4-(methylsulfonyl)phenyl]but-3-en-1-yl}acetamide]
18 | 500 to 3000 | CSc1ccc(/C(=C\CCCO)c2ccc(C3CC3)c(=O)[nH]2)cc1 [Example 1-96, 3-Cyclopropyl-6-{(1E)-5-hydroxy-1-[4-(methylsulfanyl)phenyl]pent-1-en-1-yl}pyridin-2(1H)-one]
19 | 500 to 3000 | CS(=O)(=O)c1ccc(/C(=C\CCCO)c2ccc(C3CC3)c(=O)[nH]2)cc1 [Example 1-97, 3-Cyclopropyl-6-{(1E)-5-hydroxy-1-[4-(methylsulfonyl)phenyl]pent-1-en-1-yl}pyridin-2(1H)-one]
20 | 3000 to 10000 | O=c1[nH]c(/C(=C/CCCO)c2ccc(SC3CC3)cc2)ccc1C(F)(F)F [Example 1-98, 6-{(1E)-1-[4-(Cyclopropylsulfanyl)phenyl]-5-hydroxypent-1-en-1-yl}-3-(trifluoromethyl)pyridin-2(1H)-one]
21 | 500 to 3000 | O=c1[nH]c(/C(=C/CCCO)c2ccc(S(=O)(=O)C3CC3)cc2)ccc1C(F)(F)F [Example 1-99, 6-{(1E)-1-[4-(Cyclopropylsulfonyl)phenyl]-5-hydroxypent-1-en-1-yl}-3-(trifluoromethyl)pyridin-2(1H)-one]
22 | 3000 to 10000 | Cc1ccc(/C(=C/C2(CO)CC2)c2ccc(S(=O)(=O)C3CC3)cc2)[nH]c1=O [Example 1-100, 6-{(E)-1-[4-(Cyclopropylsulfonyl)phenyl]-2-[1-(hydroxymethyl)cyclopropyl]ethenyl}-3-methylpyridin-2(1H)-one]
23 | 3000 to 10000 | C[C@@H](/C=C(\c1ccc(S(=O)(=O)C2CC2)cc1)c1ccc(C(F)(F)F)c(=O)[nH]1)CO [Example 1-101, 6-{(1E,3S)-1-[4-(Cyclopropylsulfonyl)phenyl]-4-hydroxy-3-methylbut-1-en-1-yl}-3-(trifluoromethyl)pyridin-2(1H)-one]
24 | 500 to 3000 | C[C@H](/C=C(\c1ccc(S(=O)(=O)C2CC2)cc1)c1ccc(C(F)(F)F)c(=O)[nH]1)CO [Example 1-102, 6-{(1E,3R)-1-[4-(Cyclopropylsulfonyl)phenyl]-4-hydroxy-3-methylbut-1-en-1-yl}-3-(trifluoromethyl)pyridin-2(1H)-one]
25 | 10 to 500 | O=c1[nH]c(/C(=C/C2CCCC2)c2ccc(SC3CC3)cc2)ccc1Cl [Example 1-103, 3-Chloro-6-{(E)-2-cyclopentyl-1-[4-(cyclopropylsulfanyl)phenyl]ethenyl}pyridin-2(1H)-one]
26 | 10 to 500 | O=c1[nH]c(/C(=C/C2CCCC2)c2ccc(S(=O)(=O)C3CC3)cc2)ccc1Cl [Example 1-104, 3-Chloro-6-{(E)-2-cyclopentyl-1-[4-(cyclopropylsulfonyl)phenyl]ethenyl}pyridin-2(1H)-one]
27 | 500 to 3000 | CC(=O)Nc1ccc(/C(=C\C2CCCC2)c2ccc(Cl)c(=O)[nH]2)cc1 [Example 1-105, N-{4-[(E)-1-(5-Chloro-6-oxo-1,6-dihydropyridin-2-yl)-2-cyclopentylethenyl]phenyl}acetamide]
28 | 500 to 3000 | NC(=O)Nc1ccc(/C(=C\C2CCCC2)c2ccc(Cl)c(=O)[nH]2)cc1 [Example 1-106, 1-{4-[(E)-1-(5-Chloro-6-oxo-1,6-dihydropyridin-2-yl)-2-cyclopentylethenyl]phenyl}urea]
29 | 10 to 500 | CC(C)c1ccc(/C(=C/[C@H]2CCC(=O)C2)c2ccc(S(C)(=O)=O)cc2)[nH]c1=O [Example 1-107, 6-{(E)-1-[4-(Methylsulfonyl)phenyl]-2-[(1S)-3-oxocyclopentyl]ethenyl}-3-(propan-2-yl)pyridin-2(1H)-one]

Row | Compound | EC50 [nM]
30 | CCN(CC)CCCCOc1ccc(/C(=C\[C@H]2CCC(=O)C2)c2ccc(C3CC3)c(=O)[nH]2)cc1Cl [Example 1-80, 6-{(E)-1-{3-Chloro-4-[4-(diethylamino)butoxy]phenyl}-2-[(1S)-3-oxocyclopentyl]ethenyl}-3-cyclopropylpyridin-2(1H)-one] | 10 to 500

Source: US8822503B2, “2-pyridone compounds” (Taisho Pharmaceutical Co., Ltd, priority 2009, dated 2014)
